Measurements taken from patent publication US9840500B2, “Compounds as dual inhibitors of histone methyltransferases and DNA methyltransferases” (FUNDACIÓN PARA LA INVESTIGACIÓN MÉDICA APLICADA, priority 2014, dated 2017).

Tests used:
[1] = tested on: CEMO-1; assay: Cell proliferation assay, CEMO-1 (ALL); type: cell-based, human; details: Homo sapiens; 48 hours of treatment; Table 3
Method: (§1) Cell proliferation was analyzed after 48 hours of in vitro treatment using the CellTiter 96 Aqueous One Solution Cell Proliferation Assay (Promega, Madison, Wis.). This is a colorimetric method for determining the number of viable cells in proliferation.
(§2) For the assay, suspension cells were cultured by triplicate at a density of 1×10^6 cells/ml in 96-well plates (100.000 cells/well, 100 μl/well), except for OCILY-3 and OCILY-10 cell lines which were cultured at a density of 0.5×10^6 cells/ml (50.000 cells/well, 100 μl/well) and for HepG2, Hep3B and PLC/PRF/5 cell ines which were cultured at a density of 3000 cells/well, 100 μl/well). Adherent cells were obtained from 80-90% confluent flasks and 100 μl of cells were seeded at a density of 5000 cells/well in 96-well plates by triplicate. Before addition of the compounds, adherent cells were allowed to attach to the bottom of the wells for 12 hours. In all cases, only the 60 inner wells were used to avoid any border effects.
(§3) After 48 hours of treatment, plates with suspension cells were centrifuged at 800 g for 10 minutes and medium was removed. The plates with adherent cells were flicked to remove medium. Then, cells were incubated with 100 ul/well of medium and 20 ul/well of CellTiter 96 Aqueous One Solution reagent. After 1-3 hours of incubation at 37° C., absorbance was measured at 490 nm in a 96-well plate reader. The background absorbance was measured in wells with only cell line medium and solution reagent. Data was calculated as a percentage of total absorbance of treated cell/absorbance of non treated cells.

[2] = tested on: OCI-Ly3; assay: Cell proliferation assay, OCI-Ly3 (ABC-DLBCL); type: cell-based; details: Homo sapiens, 48 hours of treatment, Table 3
Method: as §1, §2, §3

[3] = target: T1, human G9a enzyme (Homo sapiens, UniProt Q96KQ7); assay: G9a enzyme activity assay (TR-FRET); type: biochemical
T1 sequence (Q96KQ7 1-1210): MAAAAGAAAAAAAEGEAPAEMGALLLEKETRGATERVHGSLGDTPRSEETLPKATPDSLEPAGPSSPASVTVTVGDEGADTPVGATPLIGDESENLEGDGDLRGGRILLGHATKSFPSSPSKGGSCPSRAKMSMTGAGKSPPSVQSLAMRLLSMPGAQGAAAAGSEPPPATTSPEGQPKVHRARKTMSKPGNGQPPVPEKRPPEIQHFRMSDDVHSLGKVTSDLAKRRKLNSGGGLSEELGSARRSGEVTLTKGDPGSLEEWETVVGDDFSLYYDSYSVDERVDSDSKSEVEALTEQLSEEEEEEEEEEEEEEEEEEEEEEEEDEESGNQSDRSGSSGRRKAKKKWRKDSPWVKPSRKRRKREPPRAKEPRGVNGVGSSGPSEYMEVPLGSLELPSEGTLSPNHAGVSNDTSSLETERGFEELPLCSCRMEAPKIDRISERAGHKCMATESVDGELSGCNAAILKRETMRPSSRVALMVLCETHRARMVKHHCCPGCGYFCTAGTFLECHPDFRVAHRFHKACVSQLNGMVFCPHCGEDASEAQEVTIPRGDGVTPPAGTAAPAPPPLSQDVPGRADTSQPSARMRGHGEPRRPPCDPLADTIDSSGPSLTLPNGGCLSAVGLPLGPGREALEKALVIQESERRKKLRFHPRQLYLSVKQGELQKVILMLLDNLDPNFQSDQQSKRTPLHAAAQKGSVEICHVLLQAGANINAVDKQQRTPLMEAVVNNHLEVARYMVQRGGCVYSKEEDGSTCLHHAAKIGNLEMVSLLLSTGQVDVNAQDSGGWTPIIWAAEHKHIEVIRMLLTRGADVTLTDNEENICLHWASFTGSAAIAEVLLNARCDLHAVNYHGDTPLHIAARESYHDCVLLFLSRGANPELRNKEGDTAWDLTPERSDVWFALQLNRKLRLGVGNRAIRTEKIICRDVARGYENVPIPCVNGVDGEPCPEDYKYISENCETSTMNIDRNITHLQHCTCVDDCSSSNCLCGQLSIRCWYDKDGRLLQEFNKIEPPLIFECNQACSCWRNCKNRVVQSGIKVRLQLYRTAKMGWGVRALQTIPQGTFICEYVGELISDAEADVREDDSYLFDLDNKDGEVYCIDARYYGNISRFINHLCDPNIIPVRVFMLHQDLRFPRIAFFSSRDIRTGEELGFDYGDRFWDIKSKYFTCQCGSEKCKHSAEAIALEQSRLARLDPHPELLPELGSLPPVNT
Method: The biochemical assay to measure G9a enzyme activity relies on time-resolved fluorescence energy transfer (TR-FRET) between europium cryptate (donor) and XL665 (acceptor). […] The human G9a enzyme expressed in a baculovirus infected Sf9 cell expression system was obtained from BPS Biosciences (Cat. #51001). […] Final percentage of DMSO was 0.5%. • 2 μl of 1 nM G9a enzyme diluted in assay buffer. […] Final concentration 150 nM. • Then, add 5 μl of streptavidin XL665 beads. Final concentration of 16 μM. • Read the plate after 1 hour of incubation at room temperature.
(§4) For each well, fluorescence was measured at 620 nm and 665 nm. A ratio (665 nm/620 nm) was then calculated in order to minimize medium interferences. Positive control was obtained in the presence of the vehicle of the compounds. Negative control was obtained in the absence of G9a enzyme activity. Calculated IC50 values were determined using GraphPrism using 4-parameters inhibition curve.

[4] = target: DNMT1 (Homo sapiens, UniProt P26358); assay: DNMT1 enzyme activity assay (TR-FRET, EPIgeneous methyltransferase assay); type: biochemical
Method: The biochemical assay to measure DNMT1 enzyme activity relies on time-resolved fluorescence energy transfer (TR-FRET) between lumi4-Tb (donor) and d2 (acceptor) using the EPIgeneous methyltransferase assay (CisBio Cat#62SAHPEB). […] TR-FRET signal is inversely proportional to the concentration of SAH, product of DNMT1 enzyme activity, in the sample.
The human DNMT1 was obtained from Reaction Biology Corp. (Cat# DMT-21-124). […] Final percentage of DMSO was 0.5%. • 2 μl of 1 nM DNMT1 enzyme diluted in assay buffer.
as §4

[5] = tested on: PLC/PRF/5; assay: Cell proliferation assay, PLC/PRF/5 (HCC); type: cell-based; details: Homo sapiens, 48 hours of treatment, Table 3
Method: as §1, §2, §3

[6] = tested on: HepG2; assay: Cell proliferation assay, HepG2 (HCC); type: cell-based; details: Homo sapiens, 48 hours of treatment, Table 3
Method: as §1, §2, §3

[7] = tested on: Hep3B; assay: Cell proliferation assay, Hep3B (HCC); type: cell-based; details: Homo sapiens, 48 hours of treatment, Table 3
Method: as §1, §2, §3

Sequence of DNMT1 (P26358 whole entry): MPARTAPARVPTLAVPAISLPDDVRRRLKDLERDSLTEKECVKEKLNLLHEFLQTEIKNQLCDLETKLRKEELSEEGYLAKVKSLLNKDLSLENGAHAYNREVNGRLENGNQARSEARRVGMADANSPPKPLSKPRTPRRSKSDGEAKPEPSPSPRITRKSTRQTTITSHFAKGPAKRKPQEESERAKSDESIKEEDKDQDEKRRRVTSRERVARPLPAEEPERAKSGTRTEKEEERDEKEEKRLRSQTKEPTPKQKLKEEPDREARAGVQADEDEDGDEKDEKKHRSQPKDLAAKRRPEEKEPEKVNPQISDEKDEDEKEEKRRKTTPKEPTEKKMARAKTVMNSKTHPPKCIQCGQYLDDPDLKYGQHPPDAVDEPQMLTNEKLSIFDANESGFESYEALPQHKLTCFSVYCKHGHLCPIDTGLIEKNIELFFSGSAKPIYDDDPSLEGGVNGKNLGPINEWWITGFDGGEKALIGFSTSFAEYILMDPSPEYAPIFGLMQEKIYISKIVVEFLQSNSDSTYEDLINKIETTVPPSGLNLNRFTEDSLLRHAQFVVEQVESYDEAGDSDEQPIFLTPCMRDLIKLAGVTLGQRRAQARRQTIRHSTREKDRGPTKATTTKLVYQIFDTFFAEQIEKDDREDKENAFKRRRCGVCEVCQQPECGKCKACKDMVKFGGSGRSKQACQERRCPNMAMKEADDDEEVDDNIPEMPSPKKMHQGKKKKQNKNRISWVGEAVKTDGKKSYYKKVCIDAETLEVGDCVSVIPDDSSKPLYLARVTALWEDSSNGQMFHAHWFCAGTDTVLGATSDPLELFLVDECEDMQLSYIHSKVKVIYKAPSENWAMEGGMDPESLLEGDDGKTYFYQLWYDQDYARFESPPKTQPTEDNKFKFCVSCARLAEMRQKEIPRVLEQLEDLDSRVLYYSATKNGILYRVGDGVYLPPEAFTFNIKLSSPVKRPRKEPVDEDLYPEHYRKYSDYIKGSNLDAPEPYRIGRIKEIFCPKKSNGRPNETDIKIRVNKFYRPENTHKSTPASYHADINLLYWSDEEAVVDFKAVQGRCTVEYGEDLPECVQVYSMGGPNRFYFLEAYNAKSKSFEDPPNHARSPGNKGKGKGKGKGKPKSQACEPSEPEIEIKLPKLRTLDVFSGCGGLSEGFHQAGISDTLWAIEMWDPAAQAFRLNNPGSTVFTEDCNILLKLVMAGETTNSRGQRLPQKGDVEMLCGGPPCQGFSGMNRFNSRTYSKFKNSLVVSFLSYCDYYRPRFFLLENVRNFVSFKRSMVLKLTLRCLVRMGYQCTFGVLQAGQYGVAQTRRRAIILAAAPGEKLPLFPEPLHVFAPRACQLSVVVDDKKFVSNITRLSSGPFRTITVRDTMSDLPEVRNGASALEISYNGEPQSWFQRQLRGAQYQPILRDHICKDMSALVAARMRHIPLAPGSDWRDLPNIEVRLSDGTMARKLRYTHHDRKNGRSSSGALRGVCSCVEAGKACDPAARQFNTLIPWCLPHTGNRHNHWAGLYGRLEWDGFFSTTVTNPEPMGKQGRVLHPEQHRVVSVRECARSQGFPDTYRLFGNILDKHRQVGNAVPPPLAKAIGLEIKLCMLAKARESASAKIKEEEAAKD

Row | SMILES | GI50 [1] | GI50 [2] | IC50 [3] | IC50 [4] | GI50 [5] | GI50 [6] | GI50 [7]
1 | COc1cc2c(NC3CCCC3)cc(-c3ccc(C)o3)nc2cc1OCCCN1CCCC1 [Compound 3-05] | 100 to 1000 nM |  |  |  |  |  | 
2 | COc1cc2c(NC3CCN(C)C(=O)C3)cc(-c3ccc(C)o3)nc2cc1OCCCN1CCCC1 (stereo not shown) [Compound 3-17] |  | 100 to 1000 nM |  |  |  |  | 
3 | COc1cc2c(NC3CCN(C)CC3)cc(-c3ccc(C)s3)nc2cc1OCCCN1CCCC1 [Compound 3-36] | 100 to 1000 nM |  | < 100 nM | 500 to 1000 nM |  |  | 
4 | COc1cc2c(NCC3CCN(C)CC3)cc(-c3ccc(C)[nH]3)nc2cc1OCCCN1CCCC1 [Compound 3-39] | 100 to 1000 nM |  | < 100 nM | < 100 nM |  |  | 
5 | CCc1ccc(-c2cc(NC3CC4(CCNCC4)C3)c3cc(OC)c(OCCCN4CCCC4)cc3n2)o1 [Compound 4-03, N-(7-azaspiro[3.5]nonan-2-yl)-2-(5-ethyl-2-furyl)-6-methoxy-7-(3-pyrrolidin-1-ylpropoxy)quinolin-4-amine:2,2,2-trifluoroacetic acid] | 1000 to 10000 nM |  | < 100 nM | < 100 nM |  |  | 
6 | COc1cc2c(NC3CCC34CCN(C)CC4)cc(-c3ccc(C)o3)nc2cc1OCCCN1CCCC1 (stereo not shown) [Compound 5-01, 6-methoxy-N-(7-methyl-7-azaspiro[3.5]nonan-3-yl)-2-(5-methyl-2-furyl)-7-(3-pyrrolidin-1-ylpropoxy)quinolin-4-amine; 2,2,2-trifluoroacetic acid] |  | 100 to 1000 nM |  |  |  |  | 
7 | COc1cc2c(NC3CC4(CCN(C)CC4)C3)cc(-c3ccc(C)o3)nc2cc1OCCCN1CCCC1 [Compound 5-02] |  | 100 to 1000 nM |  |  | 1000 to 10000 nM | 1000 to 10000 nM | 1000 to 10000 nM
8 | COc1cc2c(NC3CC4(CCN(C)CC4)C3)cc(-c3ccc(C)[nH]3)nc2cc1OCCCN1CCCC1 [Compound 5-05, 6-methoxy-N-(7-methyl-7-azaspiro[3.5]nonan-2-yl)-2-(5-methyl-1H-pyrrol-2-yl)-7-(3-pyrrolidin-1-ylpropoxy)quinolin-4-amine; 2,2,2-trifluoroacetic acid] | 1000 to 10000 nM |  | < 100 nM | 100 to 500 nM |  |  | 
9 | CCc1ccc(-c2cc(NC3CCC34CCN(C)CC4)c3cc(OC)c(OCCCN4CCCC4)cc3n2)o1 (stereo not shown) [Compound 5-07, 2-(5-ethyl-2-furyl)-6-methoxy-N-(7-methyl-7-azaspiro[3.5]nonan-3-yl)-7-(3-pyrrolidin-1-ylpropoxy)quinolin-4-amine; 2,2,2-trifluoroacetic acid] |  | < 100 nM |  |  | 100 to 1000 nM | 100 to 1000 nM | 100 to 1000 nM
10 | COc1cc2c(NC3CCN(C(C)C)CC3)cc(C3CCCCC3)nc2cc1OCCCN1CCCC1 [Compound 7-05, 2-cyclohexyl-N-(1-isopropyl-4-piperidyl)-6-methoxy-7-(3-pyrrolidin-1-ylpropoxy)quinolin-4-amine; 2,2,2-trifluoroacetic acid] | ≤ 10000 nM |  | < 100 nM | 500 to 1000 nM | ≤ 10000 nM | ≤ 10000 nM | ≤ 10000 nM
11 | COc1cc2c(NC3CCN(C)CC3)cc(-c3ccc(C)o3)nc2cc1OCC1CCNCC1 [Compound 11-01, 6-methoxy-2-(5-methyl-2-furyl)-N-(1-methyl-4-piperidyl)-7-(4-piperidylmethoxy)quinolin-4-amine; 2,2,2-trifluoroacetic acid] |  | < 100 nM |  |  | 1000 to 10000 nM | 1000 to 10000 nM | 1000 to 10000 nM
12 | COc1cc2c(NCC3CCN(C)CC3)cc(-c3ccc(C)o3)nc2cc1OCC1CCNCC1 [Compound 11-02] | 1000 to 10000 nM |  | 100 to 500 nM | 100 to 500 nM |  |  | 
13 | COc1cc2c(NC3CCN(C)CC3)cc(-c3ccc(C)[nH]3)nc2cc1OCC1CCNCC1 [Compound 11-05] | ≤ 10000 nM |  | < 100 nM | 100 to 500 nM | ≤ 10000 nM | ≤ 10000 nM | ≤ 10000 nM
14 | Cc1ccc(-c2cc(NC3CCN(C)CC3)c3cc(OCC(F)(F)F)c(OCCCN4CCCC4)cc3n2)o1 [Compound 13-01, 2-(5-methyl-2-furyl)-N-(1-methyl-4-piperidyl)-7-(3-pyrrolidin-1-ylpropoxy)-6-(2,2,2-trifluoroethoxy)quinolin-4-amine; 2,2,2-trifluoroacetic acid] |  |  | 500 to 1000 nM | 500 to 1000 nM |  |  | 
15 | COc1cc2c(NC3CCN(C)CC3)cc(C3CCC(C)O3)nc2cc1OCCCN1CCCC1 (stereo not shown) [Compound 15-01, 6-methoxy-N-(1-methyl-4-piperidyl)-2-(5-methyltetrahydrofuran-2-yl)-7-(3-pyrrolidin-1-ylpropoxy)quinolin-4-amine; 2,2,2-trifluoroacetic acid] |  |  | < 100 nM | 1000 to 10000 nM |  |  | 
16 | COc1cc2c(NC3CCN(C)CC3)cc(-c3ccc(C)o3)nc2cc1OC1CC2(CNC2)C1 [Compound 16-01, 7-(2-azaspiro[3.3]heptan-6-yloxy)-6-methoxy-2-(5-methyl-2-furyl)-N-(1-methyl-4-piperidyl)quinolin-4-amine; 2,2,2-trifluoroacetic acid] | 1000 to 10000 nM |  | 1000 to 10000 nM | 100 to 500 nM | ≤ 10000 nM | ≤ 10000 nM | ≤ 10000 nM
17 | CCc1ccc(-c2cc(NC3CC4(CCN(C5CC5)CC4)C3)c3cc(OC)c(OCCCN4CCCC4)cc3n2)o1 [Compound 19-01, N-(7-cyclopropyl-7-azaspiro[3.5]nonan-2-yl)-2-(5-ethyl-2-furyl)-6-methoxy-7-(3-pyrrolidin-1-ylpropoxy)quinolin-4-amine; 2,2,2-trifluoroacetic acid] |  |  | 1000 to 10000 nM | 500 to 1000 nM |  |  | 
18 | CCc1ccc(-c2cc(NC3CCC34CCN(C3CC3)CC4)c3cc(OC)c(OCCCN4CCCC4)cc3n2)o1 (stereo not shown) [Compound 19-02, N-(7-cyclopropyl-7-azaspiro[3.5]nonan-3-yl)-2-(5-ethyl-2-furyl)-6-methoxy-7-(3-pyrrolidin-1-ylpropoxy)quinolin-4-amine; 2,2,2-trifluoroacetic acid] |  |  | 500 to 1000 nM | 100 to 500 nM |  |  | 
19 | COc1cc2c(NC3CCN(C)CC3)cc(-c3ccc(C)o3)nc2cc1OC1CCN(C(=O)OC(C)(C)C)CC1 [Compound 19-03] |  |  | 1000 to 10000 nM | 1000 to 10000 nM |  |  | 
